Earlier results as cited in patent US10253371B2, “Method of treating leukemia based on gene expression of clock genes” (National Guard Health Affairs, priority 2016, dated 2019).

Legend:
[1] = test system: Bcr-Abl tyrosine kinase; details: more potent than imatinib
[2] = test system: Bcr-Abl expressing cells; details: more potent than imatinib

Cc1cn(-c2cc(NC(=O)c3ccc(C)c(Nc4nccc(-c5cccnc5)n4)c3)cc(C(F)(F)F)c2)cn1 [Nilotinib]
potency relative to imatinib in inhibiting Bcr-Abl tyrosine kinase activity [1]: 10-30 fold
potency relative to imatinib in inhibiting proliferation of Bcr-Abl expressing cells [2]: 10-30 fold
